The assay deals with T1, hCRHR2 (Homo sapiens, UniProt Q13324).
T1 sequence (Q13324 1-411): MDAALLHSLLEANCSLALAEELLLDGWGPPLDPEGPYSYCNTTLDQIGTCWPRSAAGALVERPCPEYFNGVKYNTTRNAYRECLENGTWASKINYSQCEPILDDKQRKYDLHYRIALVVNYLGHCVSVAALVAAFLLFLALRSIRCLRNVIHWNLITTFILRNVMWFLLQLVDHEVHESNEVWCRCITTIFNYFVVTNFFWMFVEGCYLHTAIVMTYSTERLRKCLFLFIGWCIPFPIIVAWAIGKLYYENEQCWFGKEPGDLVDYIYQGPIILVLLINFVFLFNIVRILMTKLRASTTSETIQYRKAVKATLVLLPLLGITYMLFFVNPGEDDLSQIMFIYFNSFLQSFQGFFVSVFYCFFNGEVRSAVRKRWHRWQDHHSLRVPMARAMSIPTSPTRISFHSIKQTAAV
The assay can be described thus: HTRF cAMP assay, determination of hCRHR2 potency (peptide libraries 5 conc., purified peptides 11 conc.). Type of assay: cell-based. Particulars: for Selectivity ratio (hCRHR1/ hCRHR2): hCRHR1-EC50/hCRHR2-EC50; for EC50: purified peptides, CHO-K1 cells stably expressing hCRHR2, cAMP HTRF, read-out: hCRHR2 EC50. An excerpt:
HTRF (CisBio) cAMP assay: The assay technology has thoroughly been described in the CisBio HTRF cAMP assay Kit manual (# 62AM4PEC). Briefly, time resolved fluorescence technic was applied to measure cAMP. This technic is based on a competitive immunoassay using cryptate-labelled anti-cAMP antibody and d2-labeled cAMP. In the absence of cellular cAMP, the anti-cAMP cryptate conjugate may get into proximity to cAMP-d2 conjugate and energy (FRET) can be transferred from cryptate to d2.
CHO-K1 cells stably expressing the human corticotropin-releasing hormone receptor 2 (Eurofins/DiscoverX, Cat #95-0048C2 hCRHR2 stable monoclonal cell lines) were used as cells in suspension, brought to life from frozen cell stocks immediately before assay performance.
Concentration-response evaluation of compounds was performed with 5 concentrations of agonist peptides and EC50 values were calculated by nonlinear regression using sigmoid concentration-response with variable slope.
Concentration-response evaluation of compounds was performed with 11 concentrations of agonist peptides and EC50 values were calculated by nonlinear regression using sigmoid concentration-response with variable slope.

Starred links: 1 amine or outer side, 2 acyl side, 3 side chain; linkers in the order of their positions; H or OH if unused. Non-standard residues stand in square brackets, D forms with d. Residues, ends and D or L forms follow the SMILES beside them. Groups on a side chain read outwards from the residue. *: point of attachment. C20 diacid = O=C(O)CCCCCCCCCCCCCCCCCCC(=O)*; γGlu = O=C(O)[C@H](CCC(=O)[*:2])N[*:1]; NMeI = CC[C@H](C)[C@H](NC)C(=O)O; AEEA = NCCOCCOCC(=O)O

With `CC[C@H](C)[C@H](NC(C)=O)C(=O)N[C@H](C(=O)N[C@@H](CC(C)C)C(=O)N[C@@H](CO)C(=O)N[C@@H](CC(C)C)C(=O)N[C@@H](CC(=O)O)C(=O)N[C@H](C(=O)N1CCC[C@H]1C(=O)N[C@H](C(=O)NCC(=O)N[C@@H](CC(C)C)C(=O)N[C@@H](CC(C)C)C(=O)N[C@@H](CCC(N)=O)C(=O)N[C@H](C(=O)N[C@@H](CC(C)C)C(=O)N[C@@H](CC(C)C)C(=O)N[C@@H](CCC(=O)O)C(=O)N[C@@H](CCC(N)=O)C(=O)N[C@@H](C)C(=O)N[C@@H](CCCNC(=N)N)C(=O)N[C@@H](C)C(=O)N[C@@H](CCCNC(=N)N)C(=O)N[C@@H](C)C(=O)N[C@@H](C)C(=O)N[C@@H](CCCNC(=N)N)C(=O)N[C@@H](CCC(=O)O)C(=O)N[C@@H](CCC(N)=O)C(=O)N[C@@H](C)C(=O)N[C@@H](CCCCNC(=O)COCCOCCNC(=O)COCCOCCNC(=O)CC[C@H](NC(=O)CC[C@H](NC(=O)CCCCCCCCCCCCCCCCCCC(=O)O)C(=O)O)C(=O)O)C(=O)N[C@H](C(=O)N[C@@H](CC(N)=O)C(=O)N[C@@H](C)C(=O)N[C@@H](CCC(=O)O)C(=O)N[C@H](C(=O)N[C@@H](CC(C)C)C(=O)N[C@@H](C)C(=O)N[C@@H](CCC(=O)O)C(=O)N[C@H](C(N)=O)C(C)C)[C@@H](C)CC)[C@@H](C)O)[C@@H](C)CC)[C@@H](C)CC)C(C)C)C(C)C` [SEQ ID NO: 8] (Ac-IVLSLDVPIGLLQILLEQARARAAREQAK([AEEA-AEEA-γGlu-γGlu-C20 diacid])TNAEILAEV-NH2), the “Selectivity ratio (hCRHR1/ hCRHR2)” value was 400 and the EC50 came out at 1.4 nM.

For the molecule `CC[C@H](C)[C@H](NC)C(=O)N[C@H](C(=O)N[C@H](C(=O)N[C@@H](CO)C(=O)N[C@@H](CC(C)C)C(=O)N[C@@H](CC(=O)O)C(=O)N[C@H](C(=O)N1CCC[C@H]1C(=O)N[C@H](C(=O)NCC(=O)N[C@@H](CC(C)C)C(=O)N[C@@H](CC(C)C)C(=O)N[C@@H](CCC(N)=O)C(=O)N[C@H](C(=O)N[C@@H](CC(C)C)C(=O)N[C@@H](CC(C)C)C(=O)N[C@@H](CCC(=O)O)C(=O)N[C@@H](CCC(N)=O)C(=O)N[C@@H](CCC(=O)O)C(=O)N[C@@H](CCCCN)C(=O)N[C@@H](CCC(N)=O)C(=O)N[C@@H](CCC(=O)O)C(=O)N[C@@H](CCCCN)C(=O)N[C@@H](CCC(=O)O)C(=O)N[C@@H](CCCCN)C(=O)N[C@@H](CCC(N)=O)C(=O)N[C@@H](CCC(N)=O)C(=O)N[C@@H](C)C(=O)N[C@@H](CCCCNC(=O)COCCOCCNC(=O)COCCOCCNC(=O)CC[C@H](NC(=O)CC[C@H](NC(=O)CCCCCCCCCCCCCCCCCCC(=O)O)C(=O)O)C(=O)O)C(=O)N[C@H](C(=O)N[C@@H](CC(N)=O)C(=O)N[C@@H](C)C(=O)N[C@@H](CCC(=O)O)C(=O)N[C@H](C(=O)N[C@@H](CC(C)C)C(=O)N[C@@H](C)C(=O)N[C@@H](CCC(N)=O)C(=O)N[C@H](C(N)=O)C(C)C)[C@@H](C)CC)[C@@H](C)O)[C@@H](C)CC)[C@@H](C)CC)C(C)C)[C@@H](C)O)C(C)C` [SEQ ID NO: 10, reference compound] (H-[NMeI]VTSLDVPIGLLQILLEQEKQEKEKQQAK([AEEA-AEEA-γGlu-γGlu-C20 diacid])TNAEILAQV-NH2), the “Selectivity ratio (hCRHR1/ hCRHR2)” value worked out at 139 and the EC50 stood at 0.49 nM.

Turning to `CC[C@H](C)[C@H](NC(=O)[C@H](CCC(=O)O)NC(=O)[C@H](C)NC(=O)[C@H](CC(N)=O)NC(=O)[C@@H](NC(=O)[C@@H](NC(=O)[C@H](C)NC(=O)[C@H](CCC(N)=O)NC(=O)[C@H](CCC(=O)O)NC(=O)[C@H](CCCNC(=N)N)NC(=O)[C@H](C)NC(=O)[C@H](C)NC(=O)[C@H](CCCNC(=N)N)NC(=O)[C@H](C)NC(=O)[C@H](CCCNC(=N)N)NC(=O)[C@H](C)NC(=O)[C@H](CCC(N)=O)NC(=O)[C@H](CCC(=O)O)NC(=O)[C@H](CC(C)C)NC(=O)[C@H](CC(C)C)NC(=O)[C@@H](NC(=O)[C@H](CCC(N)=O)NC(=O)[C@H](CC(C)C)NC(=O)[C@H](CC(C)C)NC(=O)CNC(=O)[C@@H](NC(=O)[C@@H]1CCCN1C(=O)[C@@H](NC(=O)[C@H](CC(=O)O)NC(=O)[C@H](CC(C)C)NC(=O)[C@H](CO)NC(=O)[C@H](CC(C)C)NC(=O)[C@@H](NC(=O)[C@@H](NC(=O)[C@@H](N)CCCCNC(=O)COCCOCCNC(=O)COCCOCCNC(=O)CC[C@H](NC(=O)CC[C@H](NC(=O)CC[C@H](NC(=O)CCCCCCCCCCCCCCCCCCC(=O)O)C(=O)O)C(=O)O)C(=O)O)[C@@H](C)CC)C(C)C)C(C)C)[C@@H](C)CC)[C@@H](C)CC)[C@@H](C)O)[C@@H](C)O)C(=O)N[C@@H](CC(C)C)C(=O)N[C@@H](C)C(=O)N[C@@H](CCC(=O)O)C(=O)N[C@H](C(N)=O)C(C)C` [SEQ ID NO: 11, reference compound] (H-K([AEEA-AEEA-γGlu-γGlu-γGlu-C20 diacid])IVLSLDVPIGLLQILLEQARARAAREQATTNAEILAEV-NH2), the “Selectivity ratio (hCRHR1/ hCRHR2)” value came to 419 and the EC50 was found to be 1.6 nM.

For the molecule `CC[C@H](C)[C@H](NC)C(=O)N[C@H](C(=O)N[C@@H](CC(C)C)C(=O)N[C@@H](CO)C(=O)N[C@@H](CC(C)C)C(=O)N[C@@H](CC(=O)O)C(=O)N[C@H](C(=O)N1CCC[C@H]1C(=O)N[C@H](C(=O)NCC(=O)N[C@@H](CC(C)C)C(=O)N[C@@H](CC(C)C)C(=O)N[C@@H](CCC(N)=O)C(=O)N[C@H](C(=O)N[C@@H](CC(C)C)C(=O)N[C@@H](CC(C)C)C(=O)N[C@@H](CCC(=O)O)C(=O)N[C@@H](CCC(N)=O)C(=O)N[C@@H](CCC(=O)O)C(=O)N[C@@H](CCCCN)C(=O)N[C@@H](CCC(N)=O)C(=O)N[C@@H](CCC(=O)O)C(=O)N[C@@H](CCCCN)C(=O)N[C@@H](CCC(=O)O)C(=O)N[C@@H](CCCCN)C(=O)N[C@@H](CCC(N)=O)C(=O)N[C@@H](CCC(N)=O)C(=O)N[C@@H](C)C(=O)N[C@@H](CCCCNC(=O)COCCOCCNC(=O)COCCOCCNC(=O)CC[C@H](NC(=O)CC[C@H](NC(=O)CCCCCCCCCCCCCCCCCCC(=O)O)C(=O)O)C(=O)O)C(=O)N[C@H](C(=O)N[C@@H](CC(N)=O)C(=O)N[C@@H](C)C(=O)N[C@@H](CCC(N)=O)C(=O)N[C@H](C(=O)N[C@@H](CC(C)C)C(=O)N[C@@H](C)C(=O)N[C@@H](CCC(N)=O)C(=O)N[C@H](C(N)=O)C(C)C)[C@@H](C)CC)[C@@H](C)O)[C@@H](C)CC)[C@@H](C)CC)C(C)C)C(C)C` [SEQ ID NO: 9, reference compound] (H-[NMeI]VLSLDVPIGLLQILLEQEKQEKEKQQAK([AEEA-AEEA-γGlu-γGlu-C20 diacid])TNAQILAQV-NH2), the “Selectivity ratio (hCRHR1/ hCRHR2)” value came out at 392 and the EC50 came to 1.3 nM.

On to `CC[C@H](C)[C@H](NC(=O)COCCOCCNC(=O)COCCOCCNC(=O)CC[C@H](NC(=O)CC[C@H](NC(=O)CCCCCCCCCCCCCCCCCCC(=O)O)C(=O)O)C(=O)O)C(=O)N[C@H](C(=O)N[C@@H](CC(C)C)C(=O)N[C@@H](CO)C(=O)N[C@@H](CC(C)C)C(=O)N[C@@H](CC(=O)O)C(=O)N[C@H](C(=O)N1CCC[C@H]1C(=O)N[C@H](C(=O)NCC(=O)N[C@@H](CC(C)C)C(=O)N[C@@H](CC(C)C)C(=O)N[C@@H](CCC(N)=O)C(=O)N[C@H](C(=O)N[C@@H](CC(C)C)C(=O)N[C@@H](CC(C)C)C(=O)N[C@@H](CCC(=O)O)C(=O)N[C@@H](CCC(N)=O)C(=O)N[C@@H](C)C(=O)N[C@@H](CCCNC(=N)N)C(=O)N[C@@H](C)C(=O)N[C@@H](CCCNC(=N)N)C(=O)N[C@@H](C)C(=O)N[C@@H](C)C(=O)N[C@@H](CCCNC(=N)N)C(=O)N[C@@H](CCC(=O)O)C(=O)N[C@@H](CCC(N)=O)C(=O)N[C@@H](C)C(=O)N[C@H](C(=O)N[C@H](C(=O)N[C@@H](CC(N)=O)C(=O)N[C@@H](C)C(=O)N[C@@H](CCC(=O)O)C(=O)N[C@H](C(=O)N[C@@H](CC(C)C)C(=O)N[C@@H](C)C(=O)N[C@@H](CCC(=O)O)C(=O)N[C@H](C(N)=O)C(C)C)[C@@H](C)CC)[C@@H](C)O)[C@@H](C)O)[C@@H](C)CC)[C@@H](C)CC)C(C)C)C(C)C` [SEQ ID NO: 260] ({C20 diacid-γGlu-γGlu-AEEA-AEEA}-IVLSLDVPIGLLQILLEQARARAAREQATTNAEILAEV-NH2), for which the “Selectivity ratio (hCRHR1/ hCRHR2)” value came to 79 and the EC50 came to 1.4 nM.

For the origin of these results see EP4810052A2, “HCRHR2 SELECTIVE POLYPEPTIDES” (Gubra A/S, priority 2023, dated 2026).
